From ChEMBL document CHEMBL4138172, “Synthesis of bis-indolylmethanes as new potential inhibitors of β-glucuronidase and their molecular docking studies” (Eur J Med Chem, 2018)

target: T1, Beta-glucuronidase (Homo sapiens, UniProt P08236); assay: Inhibition of human beta-glucuronidase
T1 sequence (P08236 whole entry): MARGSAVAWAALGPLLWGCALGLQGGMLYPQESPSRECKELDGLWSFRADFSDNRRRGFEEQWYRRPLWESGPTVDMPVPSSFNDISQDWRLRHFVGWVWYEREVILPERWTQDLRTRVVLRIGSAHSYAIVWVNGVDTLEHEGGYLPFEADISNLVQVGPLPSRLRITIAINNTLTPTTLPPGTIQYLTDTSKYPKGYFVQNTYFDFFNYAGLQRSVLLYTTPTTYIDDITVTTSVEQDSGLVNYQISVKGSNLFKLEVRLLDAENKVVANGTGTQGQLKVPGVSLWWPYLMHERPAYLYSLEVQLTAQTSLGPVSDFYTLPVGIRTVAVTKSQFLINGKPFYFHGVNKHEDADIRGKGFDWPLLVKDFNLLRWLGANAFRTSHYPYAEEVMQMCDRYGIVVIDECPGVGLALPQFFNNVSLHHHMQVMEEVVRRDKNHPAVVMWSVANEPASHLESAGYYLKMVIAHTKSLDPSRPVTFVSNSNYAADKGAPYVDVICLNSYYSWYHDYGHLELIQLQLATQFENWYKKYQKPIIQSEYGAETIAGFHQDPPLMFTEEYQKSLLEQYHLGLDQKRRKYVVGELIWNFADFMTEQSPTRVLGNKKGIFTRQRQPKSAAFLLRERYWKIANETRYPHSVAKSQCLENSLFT

Q: How did the IC50 turn out when `Cc1ccc(C(c2c[nH]c3ccc(C(=O)N/N=C/c4ccccn4)cc23)c2c[nH]c3ccc(C(=O)N/N=C/c4ccccn4)cc23)cc1` was run?
A: 13.1 µM

Q: `Cc1ccc(/C=N/NC(=O)c2ccc3[nH]cc(C(c4ccc(C)cc4)c4c[nH]c5ccc(C(=O)N/N=C/c6ccc(C)cc6)cc45)c3c2)cc1` was tested. Which IC50 did it give?
A: 12.5 µM

Q: For `Cc1ccc(C(c2c[nH]c3ccc(C(=O)N/N=C/c4cc(O)ccc4O)cc23)c2c[nH]c3ccc(C(=O)N/N=C/c4cc(O)ccc4O)cc23)cc1`, which IC50 is on record?
A: 1.14 µM

Q: How did the IC50 turn out when `Cc1ccc(C(c2c[nH]c3ccc(C(=O)N/N=C/c4cccc(O)c4)cc23)c2c[nH]c3ccc(C(=O)N/N=C/c4cccc(O)c4)cc23)cc1` was run?
A: 5.87 µM

Q: `Cc1ccc(C(c2c[nH]c3ccc(C(=O)N/N=C/c4ccccc4C)cc23)c2c[nH]c3ccc(C(=O)N/N=C/c4ccccc4C)cc23)cc1` was tested. Which IC50 did it give?
A: 22.2 µM

Q: Which IC50 does the source give for `Cc1ccc(C(c2c[nH]c3ccc(C(=O)N/N=C/c4cccc([N+](=O)[O-])c4)cc23)c2c[nH]c3ccc(C(=O)N/N=C/c4cccc([N+](=O)[O-])c4)cc23)cc1` here?
A: 7.57 µM

Q: How did the IC50 turn out when `COc1ccc(O)c(/C=N/NC(=O)c2ccc3[nH]cc(C(c4ccc(C)cc4)c4c[nH]c5ccc(C(=O)N/N=C/c6cc(OC)ccc6O)cc45)c3c2)c1` was run?
A: 2.1 µM

Q: With `Cc1ccc(C(c2c[nH]c3ccc(C(=O)N/N=C/c4ccccc4[N+](=O)[O-])cc23)c2c[nH]c3ccc(C(=O)N/N=C/c4ccccc4[N+](=O)[O-])cc23)cc1` as the compound, how does the IC50 read?
A: 48.5 µM

Q: With `Cc1ccc(C(c2c[nH]c3ccc(C(=O)N/N=C/c4cccnc4)cc23)c2c[nH]c3ccc(C(=O)N/N=C/c4cccnc4)cc23)cc1` as the compound, how does the IC50 read?
A: 32.9 µM

Q: `Cc1ccc(C(c2c[nH]c3ccc(C(=O)N/N=C/c4cccc(Cl)c4)cc23)c2c[nH]c3ccc(C(=O)N/N=C/c4cccc(Cl)c4)cc23)cc1` was tested. Which IC50 did it give?
A: 6.9 µM

Q: With `Cc1ccc(C(c2c[nH]c3ccc(C(=O)N/N=C/c4ccc(Cl)cc4)cc23)c2c[nH]c3ccc(C(=O)N/N=C/c4ccc(Cl)cc4)cc23)cc1` as the compound, how does the IC50 read?
A: 5.8 µM

Q: For `COc1ccc(/C=N/NC(=O)c2ccc3[nH]cc(C(c4ccc(C)cc4)c4c[nH]c5ccc(C(=O)N/N=C/c6ccc(OC)cc6)cc45)c3c2)cc1`, which IC50 is on record?
A: 32.8 µM

Q: Which IC50 does the source give for `Cc1ccc(C(c2c[nH]c3ccc(C(=O)N/N=C/c4ccc(F)c(Br)c4)cc23)c2c[nH]c3ccc(C(=O)N/N=C/c4ccc(F)c(Br)c4)cc23)cc1` here?
A: 15.8 µM

Q: Which IC50 does the source give for `Cc1ccc(C(c2c[nH]c3ccc(C(=O)N/N=C/c4ccc(O)cc4)cc23)c2c[nH]c3ccc(C(=O)N/N=C/c4ccc(O)cc4)cc23)cc1` here?
A: 2.35 µM

Q: `COc1ccc(/C=N/NC(=O)c2ccc3[nH]cc(C(c4ccc(C)cc4)c4c[nH]c5ccc(C(=O)N/N=C/c6ccc(OC)c(O)c6I)cc45)c3c2)c(I)c1O` was tested. Which IC50 did it give?
A: 43.5 µM

Q: Which IC50 does the source give for `Cc1ccc(C(c2c[nH]c3ccc(C(=O)N/N=C/c4cc(O)c(O)cc4O)cc23)c2c[nH]c3ccc(C(=O)N/N=C/c4cc(O)c(O)cc4O)cc23)cc1` here?
A: 0.1 µM

Q: With `COc1ccc(/C=N/NC(=O)c2ccc3[nH]cc(C(c4ccc(C)cc4)c4c[nH]c5ccc(C(=O)N/N=C/c6ccc(OC)c(O)c6)cc45)c3c2)cc1O` as the compound, how does the IC50 read?
A: 2.67 µM

Q: `Cc1ccc(C(c2c[nH]c3ccc(C(=O)N/N=C/c4ccccc4F)cc23)c2c[nH]c3ccc(C(=O)N/N=C/c4ccccc4F)cc23)cc1` was tested. Which IC50 did it give?
A: 1.2 µM

Q: `Cc1ccc(C(c2c[nH]c3ccc(C(=O)N/N=C/c4cccc(O)c4O)cc23)c2c[nH]c3ccc(C(=O)N/N=C/c4cccc(O)c4O)cc23)cc1` was tested. Which IC50 did it give?
A: 0.1 µM

Q: For `COc1ccc(/C=N/NC(=O)c2ccc3[nH]cc(C(c4ccc(C)cc4)c4c[nH]c5ccc(C(=O)N/N=C/c6ccc(OC)cc6O)cc45)c3c2)c(O)c1`, which IC50 is on record?
A: 3.45 µM

Q: With `Cc1ccc(C(c2c[nH]c3ccc(C(=O)N/N=C/c4cccc(C)c4)cc23)c2c[nH]c3ccc(C(=O)N/N=C/c4cccc(C)c4)cc23)cc1` as the compound, how does the IC50 read?
A: 33.5 µM

Q: For `Cc1ccc(C(c2c[nH]c3ccc(C(=O)N/N=C/c4ccccc4)cc23)c2c[nH]c3ccc(C(=O)N/N=C/c4ccccc4)cc23)cc1`, which IC50 is on record?
A: 42.8 µM

Q: How did the IC50 turn out when `Cc1ccc(C(c2c[nH]c3ccc(C(=O)N/N=C/c4ccc(Cl)cc4Cl)cc23)c2c[nH]c3ccc(C(=O)N/N=C/c4ccc(Cl)cc4Cl)cc23)cc1` was run?
A: 1.1 µM

Q: For `Cc1ccc(C(c2c[nH]c3ccc(C(=O)N/N=C/C=C/c4ccccc4)cc23)c2c[nH]c3ccc(C(=O)N/N=C/C=C/c4ccccc4)cc23)cc1`, which IC50 is on record?
A: 2.98 µM

Q: How did the IC50 turn out when `Cc1ccc(C(c2c[nH]c3ccc(C(=O)N/N=C/c4ccc(O)cc4O)cc23)c2c[nH]c3ccc(C(=O)N/N=C/c4ccc(O)cc4O)cc23)cc1` was run?
A: 0.3 µM

Q: `Cc1ccc(C(c2c[nH]c3ccc(C(=O)N/N=C/c4ccc(O)c(O)c4)cc23)c2c[nH]c3ccc(C(=O)N/N=C/c4ccc(O)c(O)c4)cc23)cc1` was tested. Which IC50 did it give?
A: 0.3 µM

Q: `Cc1ccc(C(c2c[nH]c3ccc(C(=O)N/N=C/c4ccncc4)cc23)c2c[nH]c3ccc(C(=O)N/N=C/c4ccncc4)cc23)cc1` was tested. Which IC50 did it give?
A: 23.4 µM

Q: With `Cc1ccc(C(c2c[nH]c3ccc(C(=O)N/N=C/c4ccccc4Cl)cc23)c2c[nH]c3ccc(C(=O)N/N=C/c4ccccc4Cl)cc23)cc1` as the compound, how does the IC50 read?
A: 2.8 µM

Q: How did the IC50 turn out when `Cc1ccc(C(c2c[nH]c3ccc(C(=O)N/N=C/c4cccc(F)c4)cc23)c2c[nH]c3ccc(C(=O)N/N=C/c4cccc(F)c4)cc23)cc1` was run?
A: 2.2 µM

Q: For `Cc1ccc(C(c2c[nH]c3ccc(C(=O)N/N=C/c4ccc(F)cc4)cc23)c2c[nH]c3ccc(C(=O)N/N=C/c4ccc(F)cc4)cc23)cc1`, which IC50 is on record?
A: 2.8 µM

Q: `Cc1ccc(C(c2c[nH]c3ccc(C(=O)N/N=C/c4ccccc4O)cc23)c2c[nH]c3ccc(C(=O)N/N=C/c4ccccc4O)cc23)cc1` was tested. Which IC50 did it give?
A: 1.5 µM

Q: `Cc1ccc(C(c2c[nH]c3ccc(C(=O)N/N=C/c4c(O)cc(O)cc4O)cc23)c2c[nH]c3ccc(C(=O)N/N=C/c4c(O)cc(O)cc4O)cc23)cc1` was tested. Which IC50 did it give?
A: 0.2 µM
